Results published in US12465588B2, “Indole carboxamide derivative and pharmaceutical composition containing same” (KUKJE PHARMA CO., LTD., priority 2019, dated 2025).

Test system: A549 human lung cancer cells
Test: Measurement of PGE2 in IL-1β-treated A549 human lung cancer cells
Assay type: cell-based
Settings: PGE2 production, A549 cell, IL-1β 1 ng/mL, 48 hours
Protocol: Samples at various concentrations were added at 24 hours after A549 human lung cancer cells were seeded. After 1 hour, IL-1β of 1 ng/mL was added. The cells were cultured for 48 hours and then the culture supernatant was collected. PGE2 of the collected supernatant was measured according to the manufacturer's instructions using a PGE2 EIA kit.

Row | Compound | IC50
1 | CC(C)C(=O)NCc1ccc(Cl)c(C(=O)Nc2ccc3c(c2)cc(C(=O)Nc2cccc(F)c2)n3C)c1 [Compound 1, 5-(2-chloro-5-(isobutyramidomethyl)benzamido)-N-(3-fluorophenyl)-1-methyl-1H-indole-2-carboxamide] | 277 nM
2 | CC(C)C(=O)NCc1ccc(Cl)c(C(=O)Nc2ccc3c(c2)cc(C(=O)Nc2ccc(F)cc2)n3C)c1 [Compound 2, 5-(2-chloro-5-(isobutyramidomethyl)benzamido)-N-(4-fluorophenyl)-1-methyl-1H-indole-2-carboxamide] | 237 nM
3 | CC(C)C(=O)NCc1ccc(Cl)c(C(=O)Nc2ccc3c(c2)cc(C(=O)Nc2cccc(Cl)c2)n3C)c1 [Compound 3, 5-(2-chloro-5-(isobutyramidomethyl)benzamido)-N-(3-chlorophenyl)-1-methyl-1H-indole-2-carboxamide] | 209 nM
4 | CC(C)C(=O)NCc1ccc(Cl)c(C(=O)Nc2ccc3c(c2)cc(C(=O)Nc2ccc(C(F)(F)F)cc2)n3C)c1 [Compound 8, 5-(2-chloro-5-(isobutyramidomethyl)benzamido)-1-methyl-N-(4-(trifluoromethyl)phenyl)-1H-indole-2-carboxamide] | 5.22 nM
5 | CC(C)C(=O)NCc1ccc(Cl)c(C(=O)Nc2ccc3c(c2)cc(C(=O)Nc2ccc(Br)cc2)n3C)c1 [Compound 13, N-(4-bromophenyl)-5-(2-chloro-5-(isobutyramidomethyl)benzamido)-1-methyl-1H-indole-2-carboxamide] | 26.4 nM
6 | CC(C)C(=O)NCc1ccc(Cl)c(C(=O)Nc2ccc3c(c2)cc(C(=O)Nc2cccc(-c4ccc(C(F)(F)F)cc4)c2)n3C)c1 [Compound 16, 5-(2-chloro-5-(isobutyramidomethyl)benzamido)-1-methyl-N-(4′-(trifluoromethyl)-[1,1′-biphenyl]-3-yl)-1H-indole-2-carboxamide] | 7.19 nM
7 | CC(C)C(=O)NCc1ccc(Cl)c(C(=O)Nc2ccc3c(c2)cc(C(=O)Nc2cc(F)cc(C(F)(F)F)c2)n3C)c1 [Compound 17, 5-(2-chloro-5-(isobutyramidomethyl)benzamido)-N-(3-fluoro-5-(trifluoromethyl)phenyl)-1-methyl-1H-indole-2-carboxamide] | 88.1 nM
8 | CC(C)C(=O)NCc1ccc(Cl)c(C(=O)Nc2ccc3c(c2)cc(C(=O)Nc2ccc(C(F)(F)F)nc2)n3C)c1 [Compound 18, 5-(2-chloro-5-(isobutyramidomethyl)benzamido)-1-methyl-N-(6-(trifluoromethyl)pyridin-3-yl)-1H-indole-2-carboxamide] | 60 nM
9 | CC(C)C(=O)NCc1ccc(Cl)c(C(=O)Nc2ccc3c(c2)cc(C(=O)Nc2cc(-c4ccc(C(F)(F)F)cc4)n[nH]2)n3C)c1 [Compound 19, 5-(2-chloro-5-(isobutyramidomethyl)benzamido)-1-methyl-N-(3-(4-(trifluoromethyl)phenyl)-1H-pyrazole-5-yl)-1H-indole-2-carboxamide] | > 100 nM
10 | Cc1c(-c2ccc(C(F)(F)F)cc2)n[nH]c1NC(=O)c1cc2cc(NC(=O)c3cc(CNC(=O)C(C)C)ccc3Cl)ccc2n1C [Compound 20, 5-(2-chloro-5-(isobutyramidomethyl)benzamido)-1-methyl-N-(4-methyl-3-(4-(trifluoromethyl)phenyl)-1H-pyrazol-5-yl)-1H-indole-2-carboxamide] | 6.87 nM
11 | CC(C)C(=O)NCc1ccc(Cl)c(C(=O)Nc2ccc3c(c2)cc(C(=O)N2CCN(c4ncccn4)CC2)n3C)c1 [Compound 21, 2-chloro-5-(isobutyramidomethyl)-N-(1-methyl-2-(4-(pyrimidin-2-yl)piperazin-1-carbonyl)-1H-indole-5-yl)benzamide] | > 100 nM
12 | Cc1cc(Cl)ccc1NC(=O)c1cc2cc(NC(=O)c3cc(CNC(=O)C(C)C)ccc3Cl)ccc2n1C [Compound 22, N-(4-chloro-2-methylphenyl)-5-(2-chloro-5-(isobutyramidomethyl)benzamido)-1-methyl-1H-indole-2-carboxamide] | 27.4 nM
13 | Cc1cc(F)ccc1NC(=O)c1cc2cc(NC(=O)c3cc(CNC(=O)C(C)C)ccc3Cl)ccc2n1C [Compound 23, 5-(2-chloro-5-(isobutyramidomethyl)benzamido)-N-(4-fluoro-2-methylphenyl)-1-methyl-1H-indole-2-carboxamide] | 45 nM
14 | CC(C)C(=O)NCc1ccc(Cl)c(C(=O)Nc2ccc3c(c2)cc(C(=O)N[C@@H](C)c2ccc4ccccc4c2)n3C)c1 [Compound 31, (S)-5-(2-chloro-5-(isobutyramidomethyl)benzamido)-1-methyl-N-(1-(naphthalen-2-yl)ethyl)-1H-indole-2-carboxamide] | 9.22 nM
15 | CC(C)C(=O)NCc1ccc(Cl)c(C(=O)Nc2ccc3c(c2)cc(C(=O)NCc2ccc(F)cc2)n3C)c1 [Compound 32, 5-(2-chloro-5-(isobutyramidomethyl)benzamido)-N-(4-fluorobenzyl)-1-methyl-1H-indole-2-carboxamide] | 9.62 nM
16 | CC(C)C(=O)NCc1ccc(Cl)c(C(=O)Nc2ccc3c(c2)cc(C(=O)NCc2ccc(C(C)(C)C)cc2)n3C)c1 [Compound 33, N-(4-(tert-butyl)benzyl)-5-(2-chloro-5-(isobutyramidomethyl)benzamido)-1-methyl-1H-indole-2-carboxamide] | 9.59 nM
17 | CC(C)C(=O)NCc1ccc(Cl)c(C(=O)Nc2ccc3c(c2)cc(C(=O)NCc2ccc(C(F)(F)F)cc2)n3C)c1 [Compound 34, 5-(2-chloro-5-(isobutyramidomethyl)benzamido)-1-methyl-N-(4-(trifluoromethyl)benzyl)-1H-indole-2-carboxamide] | 7.9 nM
18 | CC(C)C(=O)NCc1ccc(Cl)c(C(=O)Nc2ccc3c(c2)cc(C(=O)NCc2ccccc2C(F)(F)F)n3C)c1 [Compound 35, 5-(2-chloro-5-(isobutyramidomethyl)benzamido)-1-methyl-N-(2-(trifluoromethyl)benzyl)-1H-indole-2-carboxamide] | 10.4 nM
19 | CC(C)C(=O)NCc1ccc(Cl)c(C(=O)Nc2ccc3c(c2)cc(C(=O)NC(C)c2ccc(C(F)(F)F)cc2)n3C)c1 (stereo not drawn) [Compound 47, 5-(2-chloro-5-(isobutyramidomethyl)benzamido)-1-methyl-N-(1-(4-(trifluoromethyl)phenyl)ethyl)-1H-indole-2-carboxamide] | 5.82 nM
20 | CC(C)C(=O)NCc1ccc(Cl)c(C(=O)Nc2ccc3c(c2)cc(C(=O)NCc2ccc(Cl)cc2)n3C)c1 [Compound 49, 5-(2-chloro-5-(isobutyramidomethyl)benzamido)-N-(4-chlorobenzyl)-1-methyl-1H-indole-2-carboxamide] | 9.75 nM
21 | CC(C)C(=O)NCc1ccc(Cl)c(C(=O)Nc2ccc3c(c2)cc(C(=O)NCc2ccc(F)c(Cl)c2)n3C)c1 [Compound 56, N-(3-chloro-4-fluorobenzyl)-5-(2-chloro-5-(isobutyramidomethyl)benzamido)-1-methyl-1H-indole-2-carboxamide] | 59.2 nM
22 | CC(C)C(=O)NCc1ccc(Cl)c(C(=O)Nc2ccc3c(c2)cc(C(=O)N[C@H](C)c2ccc(C(F)(F)F)cc2)n3C)c1 [Compound 58, (R)-5-(2-chloro-5-(isobutyramidomethyl)benzamido)-1-methyl-N-(1-(4-(trifluoromethyl)phenyl)ethyl)-1H-indole-2-carboxamide] | 5.54 nM
23 | CC(C)C(=O)NCc1ccc(Cl)c(C(=O)Nc2ccc3c(c2)cc(C(=O)N[C@H](C)c2ccc(OC(F)(F)F)cc2)n3C)c1 [Compound 59, (R)-5-(2-chloro-5-(isobutyramidomethyl)benzamido)-1-methyl-N-(1-(4-(trifluoromethoxy)phenyl)ethyl)-1H-indole-2-carboxamide] | 9.5 nM
24 | CC(C)C(=O)NCc1ccc(Cl)c(C(=O)Nc2ccc3c(c2)cc(C(=O)N[C@@H](C)c2ccc(C(F)(F)F)cc2)n3C)c1 [Compound 60, (S)-5-(2-chloro-5-(isobutyramidomethyl)benzamido)-1-methyl-N-(1-(4-(trifluoromethyl)phenyl)ethyl)-1H-indole-2-carboxamide] | 30.3 nM
25 | CC(C)C(=O)NCc1ccc(Cl)c(C(=O)Nc2ccc3c(c2)cc(C(=O)N[C@@H](C)c2ccc(OC(F)(F)F)cc2)n3C)c1 [Compound 61, (S)-5-(2-chloro-5-(isobutyramidomethyl)benzamido)-1-methyl-N-(1-(4-(trifluoromethoxy)phenyl)ethyl)-1H-indole-2-carboxamide] | 51.6 nM
26 | CC(C)C(=O)NCc1ccc(Cl)c(C(=O)Nc2ccc3c(c2)cc(C(=O)NCc2ccc(C(C)(C)C)cc2)n3CC(F)(F)F)c1 [Compound 62, N-(4-(tert-butyl)benzyl)-5-(2-chloro-5-(isobutyramidomethyl)benzamido)-1-(2,2,2-trifluoroethyl)-1H-indole-2-carboxamide] | 27.5 nM
27 | CC(C)C(=O)NCc1ccc(Cl)c(C(=O)Nc2ccc3c(c2)cc(C(=O)NCc2ccccc2C(F)(F)F)n3CC(F)(F)F)c1 [Compound 63, 5-(2-chloro-5-(isobutyramidomethyl)benzamido)-1-(2,2,2-trifluoroethyl)-N-(2-(trifluoromethyl)benzyl)-1H-indole-2-carboxamide] | 14.8 nM
28 | CC(C)C(=O)NCc1ccc(Cl)c(C(=O)Nc2ccc3c(c2)cc(C(=O)NCc2ccc(C(F)(F)F)cc2)n3CC(F)(F)F)c1 [Compound 64, 5-(2-chloro-5-(isobutyramidomethyl)benzamido)-1-(2,2,2-trifluoroethyl)-N-(4-(trifluoromethyl)benzyl)-1H-indole-2-carboxamide] | 9.38 nM
29 | CC(C)C(=O)NCc1ccc(Cl)c(C(=O)Nc2ccc3c(c2)cc(C(=O)N[C@@H](C)c2ccc4ccccc4c2)n3CC(F)(F)F)c1 [Compound 65, (S)-5-(2-chloro-5-(isobutyramidomethyl)benzamido)-N-(1-(naphthalen-2-yl)ethyl)-1-(2,2,2-trifluoroethyl)-1H-indole-2-carboxamide] | 2.71 nM
30 | CC(C)C(=O)NCc1ccc(Cl)c(C(=O)Nc2ccc3c(c2)cc(C(=O)N[C@@H](C)c2ccc([N+](=O)[O-])cc2)n3CC(F)(F)F)c1 [Compound 66, (S)-5-(2-chloro-5-(isobutyramidomethyl)benzamido)-N-(1-(4-nitrophenyl)ethyl)-1-(2,2,2-trifluoroethyl)-1H-indole-2-carboxamide] | 43.3 nM
